According to patent US11498929B2, “Chromenopyrimidine derivatives as phosphatidylinsitol phosphate kinase inhibitors” (Hibercell, Inc., priority 2019, dated 2022):

What was measured:
[1] = target: T1, PIP4K2A (Homo sapiens, UniProt P48426); assay: Kinase Assay - PIP4K2 A (inhibition of PIP4K2 A kinase assay); type: biochemical; conditions: compounds listed under IC50 bin headings
T1 construct: GST; made in house; host or cells: E. coli
T1 sequence (P48426 1-406): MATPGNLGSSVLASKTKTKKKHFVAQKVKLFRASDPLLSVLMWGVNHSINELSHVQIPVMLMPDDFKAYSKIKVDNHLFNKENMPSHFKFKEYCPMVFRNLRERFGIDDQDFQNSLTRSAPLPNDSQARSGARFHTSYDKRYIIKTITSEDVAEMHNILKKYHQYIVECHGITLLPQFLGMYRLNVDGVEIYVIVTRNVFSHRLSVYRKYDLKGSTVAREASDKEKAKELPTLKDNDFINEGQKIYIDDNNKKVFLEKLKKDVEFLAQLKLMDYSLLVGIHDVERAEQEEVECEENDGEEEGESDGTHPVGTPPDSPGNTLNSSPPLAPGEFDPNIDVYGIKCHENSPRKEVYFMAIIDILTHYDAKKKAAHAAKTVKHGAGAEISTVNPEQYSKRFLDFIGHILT
Description: Dilution series of the compounds were prepared in DMSO at 100 times the final assay concentration (n1=n0/3 in 10 points). The compounds were further diluted to three times the assay concentration in assay buffer (20 mM MOPS pH 7.2, 25 mM magnesium chloride, 0.005% Tween 20). 6 μL of the diluted compounds were added to a 384 well assay plate followed by 9 μL of a mix consisting of 4 nM PIP4K2A (full length protein, SignalChem) and 100 μM PI(5)P diC8 (Tebu-Bio). Enzyme and compounds were pre-incubated at room temperature for 15 minutes.
Then 3 μL of a solution containing 60 μM ATP (Promega) in assay buffer was added to the wells containing compound and enzyme and mixing was performed by pipetting several times. The reaction was incubated at room temperature for 1 h. Then 18 μL of ADP-Glo™ Reagent (Promega) was added to stop the kinase reaction and deplete the unconsumed ATP, mixing was performed by pipetting several times. The plate was incubated at room temperature for 40 minutes before addition of 36 μL of Kinase Detection Reagent (Promega) to convert ADP to ATP and introduce luciferase and luciferin to detect ATP. The reaction was incubated at room temperature for 40 minutes before the luminescence was measured in a in a Victor 3V 1420 multilabel counter (Perkin Elmer).
Percent inhibition of the compounds as compared to dimethyl sulfoxide treated control samples was calculated. Compound concentration versus percent inhibition were fitted to generate IC50 values. […]

[2] = target: T2, PIP4K2 B (GST-tagged PIP4KtypeIIB) (Homo sapiens, UniProt P78356); assay: Kinase Assay - PIP4K2 B (inhibition of PIP4K2 B kinase assay); type: biochemical; conditions: compounds listed under IC50 bin headings
T2 construct: GST; made in house; host or cells: E. coli
T2 sequence (P78356 1-416): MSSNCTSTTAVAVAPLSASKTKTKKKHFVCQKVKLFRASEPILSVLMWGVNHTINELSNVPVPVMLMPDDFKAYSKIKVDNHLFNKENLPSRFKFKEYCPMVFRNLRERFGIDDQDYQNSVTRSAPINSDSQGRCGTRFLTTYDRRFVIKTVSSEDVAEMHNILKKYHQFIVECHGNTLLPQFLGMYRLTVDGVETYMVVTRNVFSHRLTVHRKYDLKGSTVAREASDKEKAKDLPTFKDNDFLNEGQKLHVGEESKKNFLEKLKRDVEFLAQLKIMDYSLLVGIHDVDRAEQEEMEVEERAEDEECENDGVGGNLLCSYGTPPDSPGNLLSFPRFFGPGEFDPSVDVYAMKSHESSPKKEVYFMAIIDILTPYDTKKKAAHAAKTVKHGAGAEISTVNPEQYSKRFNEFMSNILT
Excerpt: GST tagged PIP4KtypeIIA and B enzymes were overexpressed in E. Coli and purified to >80% homogeneity. Phosphatidyl inositol-5-phosphate (PI5P, Cat. #850152, Avanti Polar Lipids Inc.) was used as the lipid substrate and phosphatidyl ethanolamine (DOPE 18:1, Cat. #850725, Avanti Polar Lipids Inc.) was used as the carrier lipid for assays. Ultrapure ATP and GTP was purchased from Bellbrooke Labs. ADP Glo reagents were obtained from Promega. Transcreener FI reagent was obtained from Bellbrooke labs.
GST-tagged PIP4KtypeIIB (3.4 uL, 2.77 mg/mL) was diluted to 5 mL using HNE buffer to yield 5× enzyme stock (25 nM)
Lipid Preparation: In a 10 mL pyrex glass vial, 1 ug of PI5P and 1 ug of DOPE were suspended in 2.5 mL of HEPES buffer mix and 2.5 mL of H:E buffer. The contents were mixed and sonicated for 3 min to yield a translucent lipid stock.
Compound Preparation: Compounds were stored as 5 mM stocks in neat DMSO as room temperature in glass vials. 5 mM stocks were diluted to 2 mM and then serially diluted (3×) in neat DMSO in 96 well polypropylene plates. From the serially diluted stocks, 3 uL was delivered into 250 uL of 25% DMSO (in water) to generate 5× compound stocks. Typically, the highest compound conc. was 24 uM.
The assay volume was kept at 25 uL. To each well of the reaction plate, 10 uL of lipid stock (1:1 ratio PI5P:DOPE) was delivered. This was followed by the addition of 5 uL of compound in 25% DMSO. Then, to each well, 5 uL of 25 nM (5×) typeIIB enzyme was delivered. The contents were mixed well and incubated for 1 h at 27 C. After 1 h, reaction was initiated by adding 5 uL of 500 uM GTP and the contents were mixed well with a multi-channel pipetteman. The final concentration of the reagents are as follows: 50 mM HEPES, pH 7.3, 10 mM MgCl2, 20 mM NaCl, 0.01% v/v triton-X100, 5% DMSO, 100 uM GTP, 80 uM (2 ug) PI5P, 2 ug DOPE, and 5 nM PIP4KIIB Typically, the highest conc. of compounds was 4.8 uM and the lowest conc. was 0.
After 2 h, the reaction was quenched by adding 25 uL of transcreener FI reagent. The contents were incubated at RT for 1 h and the Fluorescence (Ex:584 Em: 623) was read using Molecular Devices Paradigm plate reader. […] The blanks were averaged and subtracted from all other wells. Using a calibration curve, RFU was converted to uM GDP (product). IC50 was calculated by plotting the residual activity (expressed as % No inhibitor control) vs. log [Inh. conc.]

[3] = test system: MOLM-16; assay: MOLM-16 EC50 assay; type: cell-based; conditions: MOLM16

Row | SMILES | IC50 [1] [nM] | IC50 [2] [nM] | EC50 [3] [nM]
1 | CCN(CC)CCNC(=O)N1CCOc2ncc(Nc3ncc4c(n3)C(C)(C)Oc3cc(N5CCCC5=O)ccc3-4)cc21 [Compound 1, N-[2-(diethylamino)ethyl]-7-{[5,5-dimethyl-8-(2-oxopyrrolidin-1-yl)-5H-chromeno[3,4-d]pyrimidin-3-yl]amino}-1H,2H,3H-pyrido[2,3-b][1,4]oxazine-1-carboxamide] | 1 to 10 | 10 to 100 | 10 to 100
2 | CC1(C)Oc2cc(N3CCCC3=O)ccc2-c2cnc(Nc3cnc4c(c3)N(C(=O)NCCN3CCOCC3)CCO4)nc21 [Compound 2, 7-{[5,5-dimethyl-8-(2-oxopyrrolidin-1-yl)-5H-chromeno[3,4-d]pyrimidin-3-yl]amino}-N-[2-(morpholin-4-yl)ethyl]-1H,2H,3H-pyrido[2,3-b][1,4]oxazine-1-carboxamide] | 1 to 10 | 1 to 10 | 10 to 100
3 | C[C@@H]1CCC(=O)N1c1ccc2c(c1)OC(C)(C)c1nc(Nc3cnc4c(c3)N(C(=O)CN(C)C)CCO4)ncc1-2 [Compound 3, (5R)-1-[3-({1-[2-(dimethylamino)acetyl]-1H,2H,3H-pyrido[2,3-b][1,4]oxazin-7-yl}amino)-5,5-dimethyl-5H-chromeno[3,4-d]pyrimidin-8-yl]-5-methylpyrrolidin-2-one] | 1 to 10 | 1 to 10 | 10 to 100
4 | CCN1CCN(Cc2cncc(Nc3ncc4c(n3)C(C)(C)Oc3cc(N5CCCC5=O)ccc3-4)c2)CC1 [Compound 4, 1-[3-({5-[(4-ethylpiperazin-1-yl)methyl]pyridin-3-yl}amino)-5,5-dimethyl-5H-chromeno[3,4-d]pyrimidin-8-yl]pyrrolidin-2-one] | 10 to 100 | 100 to 1000 | 10 to 100
5 | Cc1cnnn1-c1ccc2c(c1)OC(C)(C)c1nc(Nc3cnc4c(c3)N(C(=O)N(C)C)CCO4)ncc1-2 [Compound 5, 7-{[5,5-dimethyl-8-(5-methyl-1H-1,2,3-triazol-1-yl)-5H-chromeno[3,4-d]pyrimidin-3-yl]amino}-N,N-dimethyl-1H,2H,3H-pyrido[2,3-b][1,4]oxazine-1-carboxamide] | ≤ 1 | 1 to 10 | 100 to 1000
6 | Cc1cnnn1-c1ccc2c(c1)OC(C)(C)c1nc(Nc3cncc(N4CCN(CCO)CC4)c3)ncc1-2 [Compound 6, 2-[4-(5-{[5,5-dimethyl-8-(5-methyl-1H-1,2,3-triazol-1-yl)-5H-chromeno[3,4-d]pyrimidin-3-yl]amino}pyridin-3-yl)piperazin-1-yl]ethan-1-ol] | ≤ 1 | 1 to 10 | 100 to 1000

Next, values leading:

Row | IC50 [1] [nM] | IC50 [2] [nM] | EC50 [3] [nM] | SMILES
7 | ≤ 1 | 1 to 10 | 10 to 100 | CNC(=O)N1CCOc2ncc(Nc3ncc4c(n3)C(C)(C)Oc3cc(N5CCCC5=O)ccc3-4)cc21 [Compound 7, 7-{[5,5-dimethyl-8-(2-oxopyrrolidin-1-yl)-5H-chromeno[3,4-d]pyrimidin-3-yl]amino}-N-methyl-1H,2H,3H-pyrido[2,3-b][1,4]oxazine-1-carboxamide]
8 | ≤ 1 | 1 to 10 |  | CNC(=O)N1CCOc2ncc(Nc3ncc4c(n3)C(C)(C)Oc3cc(N5C(=O)CC[C@H]5C)ccc3-4)cc21 [Compound 18, 7-({5,5-dimethyl-8-[(2R)-2-methyl-5-oxopyrrolidin-1-yl]-5H-chromeno[3,4-d]pyrimidin-3-yl}amino)-N-methyl-1H,2H,3H-pyrido[2,3-b][1,4]oxazine-1-carboxamide]
9 | 1 to 10 | 1 to 10 |  | C[C@@H]1CCC(=O)N1c1ccc2c(c1)OC(C)(C)c1nc(Nc3cnc4c(c3)N(C(=O)NC3CC3)CCO4)ncc1-2 [Compound 20, N-cyclopropyl-7-({5,5-dimethyl-8-[(2R)-2-methyl-5-oxopyrrolidin-1-yl]-5H-chromeno[3,4-d]pyrimidin-3-yl}amino)-1H,2H,3H-pyrido[2,3-b][1,4]oxazine-1-carboxamide]
10 | 1 to 10 | 10 to 100 |  | CCN(CC)CCOC(=O)N1CCOc2ncc(Nc3ncc4c(n3)C(C)(C)Oc3cc(N5CCCC5=O)ccc3-4)cc21 [Compound 21, 2-(diethylamino)ethyl 7-{[5,5-dimethyl-8-(2-oxopyrrolidin-1-yl)-5H-chromeno[3,4-d]pyrimidin-3-yl]amino}-1H,2H,3H-pyrido[2,3-b][1,4]oxazine-1-carboxylate]
11 | 1 to 10 |  | 100 to 1000 | CC1(C)Oc2cc(N3C(=O)CCC34CC4)ccc2-c2cnc(Nc3cccnc3)nc21 [Compound 24, 4-{5,5-dimethyl-3-[(pyridin-3-yl)amino]-5H-chromeno[3,4-d]pyrimidin-8-yl}-4-azaspiro[2.4]heptan-5-one]
12 | 1 to 10 |  | 100 to 1000 | CCN(CC)CCN(C)c1cncc(Nc2ncc3c(n2)C(C)(C)Oc2cc(-n4nncc4C)ccc2-3)c1 [Compound 27, N3-[2-(diethylamino)ethyl]-N5-[5,5-dimethyl-8-(5-methyl-1H-1,2,3-triazol-1-yl)-5H-chromeno[3,4-d]pyrimidin-3-yl]-N3-methylpyridine-3,5-diamine]
13 | 1 to 10 | 100 to 1000 |  | CC1(C)Oc2cc(N3CCCC3=O)ccc2-c2cnc(Nc3cncc(CN4CC(F)C4)c3)nc21 [Compound 28, 1-[3-({5-[(3-fluoroazetidin-1-yl)methyl]pyridin-3-yl}amino)-5,5-dimethyl-5H-chromeno[3,4-d]pyrimidin-8-yl]pyrrolidin-2-one]
14 | 10 to 100 | 100 to 1000 |  | CC1(C)Oc2cc(N3CCCC3=O)ccc2-c2cnc(Nc3cncc(OCCN4CC(F)C4)c3)nc21 [Compound 30, 1-[3-({5-[2-(3-fluoroazetidin-1-yl)ethoxy]pyridin-3-yl}amino)-5,5-dimethyl-5H-chromeno[3,4-d]pyrimidin-8-yl]pyrrolidin-2-one]
15 | 10 to 100 |  | 10 to 100 | CNCCOc1cncc(Nc2ncc3c(n2)C(C)(C)Oc2cc(N4CCCC4=O)ccc2-3)c1 [Compound 34, 1-[5,5-dimethyl-3-({5-[2-(methylamino)ethoxy]pyridin-3-yl}amino)-5H-chromeno[3,4-d]pyrimidin-8-yl]pyrrolidin-2-one]
